From publication PMC8397425, “A Strategy to Conjugate Bioactive Fragments to Cytotoxic Diiron Bis(cyclopentadienyl) Complexes” (Organometallics, 2021) come the findings set out here.

Values joined by “and” are separate entries in the source; they are usually repeats but may differ in a detail not shown here. Identical values can stand only once.

One series has as its system A2780 cells. Nature of the series: Intracellular ROS production, DCFH-DA assay. The format is cell-based, human. The following applies: for ROS production compared to H2O2 positive control: 10 μM compound vs H2O2 100 μM, 24 h; for intracellular ROS levels: 10 μM, up to 24 h, DCFH-DA fluorescence. The procedure:
In order to shed light on the possible mechanism of action of the biofunctionalized diiron complexes, a series of complementary studies were performed. It was previously shown that the diiron vinyliminium structural motif induces ROS production, possibly associated with more than one mechanism: (1) monoelectron reduction of the complex favored by its net cationic charge; (2) fragmentation into a monoiron derivative and atomic iron; […] After overnight incubation, the cells were treated following the manufacturer’s protocol. […] Stock solutions of compounds were prepared as described above; cells incubated with equal amounts of DMSO in supplemented RPMI were used as a control. The fluorescence was measured up to 24 h with an excitation wavelength of 485 nm and with a 535 nm emission filter by Multilabel Counter (PerkinElmer, Waltham, MA, USA). The measurements were performed in triplicate, and results were reported as mean ± SD. Statistical differences were examined using one-way analysis of variance (ANOVA), and a Tukey test was used for post hoc analysis.

The subject of series [1] is natural double-stranded DNA from calf thymus. The experiment in a line: Ethidium bromide (EB) exchange test with DNA. The following applies: NaCl 0.1 M, NaCac 0.01 M, T = 25 °C; complex 1.4–135 μM. The format is binding. The procedure:
The ability of [4]CF3SO3 and [9]CF3SO3 to interact with natural DNA was studied using the ethidium bromide (EB) exchange test (Figure 6), with the concentration of the complexes beingin the 1.5–124 μM range for [4]CF3SO3 and 1.4–135 μM for [9]CF3SO3. Blank experiments were carried out with the two bioactive molecules and also with DMSO to check for solvent/dilution effects. […] However, EB exchange titrations are suitable to recognize fast noncovalent binding events, but not subsequent slow covalent binding. […]
Ethidium bromide (EB, ≥98.0%), bovine serum albumin (BSA, lyophilized powder, crystallized, ≥98.0%), and natural double-stranded DNA from calf thymus (DNA, lyophilized powder, Na^+ salt in the form of fibers) were purchased from Merck, while anhydrous guanosine 5′-monophosphate disodium salt (Na2[GMP], >98.0%) was purchased from TCI Chemicals. […] Molar concentrations of solutions of EB (CEB), BSA (CBSA), and DNA (CDNA) were determined by absorbance measurements (εEB^480 nm = 5700 M^–1 cm^–1; εBSA^278 nm = 44000 M^–1 cm^–1; εDNA^260 nm = 13200 M^–1 cm^–1 for a concentration expressed in base pairs). […] In EB/DNA exchange experiments, EB was added to DNA until the fluorescence emission at λex = 520 nm/λem = 595 nm (diagnostic wavelengths for the DNA-intercalated EB only) started to reach the plateau (CEB = 5.60 × 10^–5 M, CDNA = 1.15 × 10^–4 M). […]

Series [2] can be described thus: Octanol–water partition coefficient (shake-flask, UV–vis). The format is physicochemical. The following applies: T = 21 °C. On the procedure: The solubility of the complexes in D2O was assessed using ^1H NMR spectroscopy (see Table 1 and the Experimental Section for details). […] Data from the literature for the related nonfunctionalized complexes [2′,3′]CF3SO3 are compiled in Table 1 for comparison.[11] The octanol–water partition coefficients (Log Pow) were measured using a UV–vis method and fall within the −0.2 to +1.2 range (Table 1). […] For instance, Log Pow values of 1.07 and 0.65 are obtained for the geometric isomers [9]CF3SO3 and [10]CF3SO3, respectively. […]
Determination of partition coefficients (Log P ow)
Partition coefficients ( Pow; IUPAC: K D partition constant, 7,8 defined as Pow = corg/caq, where corg and caq are the molar concentrations of the selected compound in the organic and aqueous phases, respectively, were determined by the shake-flask method and UV-Vis measurements. 9 Values of Log Pow for diiron complexes are compiled in Table 2. All the operations were carried out at 21±1 °C. De -ionised water and 1-octanol were mixed and vigorously stirred for 24 hours at room temperature to allow saturation of both phases, then separated by centrifugation and used for the following experiments. A solution of the selected Fe compound in the organic phase (V = 5 mL) was prepared and its UV-Vis spectrum was recorded. An aliquot of the solution (Vorg = 1.5 mL) was then transferred into a test tube and the aqueous phase (Vorg = Vaq = 1.5 mL) was added. The mixture was vigorously stirred for 20 minutes and the resulting emulsion was centrifuged (5000 rpm, 10’). […]
the organic phase was recorded. The procedure was repeated three times for each compound. The partition coefficient was then calculated as PPow = AorgA0,org − Aorg, where A0,org and Aorg are the absorbance values in the organic phase, respectively before and after mixing with the aqueous phase. 9 UV-Vis measurements were carried out using 1 cm PMMA cuvettes. The wavelength of the maximum absorption of each compound was used for UV-Vis quantification.

With “[Fe2Cp2(CO)(μ-CO){μ-η^1:η^3-Cγ(3-C6H4NHC(=O)(CH2)3C6H4N(CH2CH2Cl)2)CβHCαNMe2}]CF3SO3 [[9]CF3SO3]”, in the series on A2780 cells, the “ROS production compared to H2O2 positive control” value is on record as “ROS production higher than that recorded for H2O2” and the “intracellular ROS levels” value was “Significant intracellular ROS levels”. For the same substance, the “interaction with natural DNA (EB displacement)” value in series [1] is listed as “interact weakly with natural DNA”. In addition, in series [2], the “Log Pow” value is 1.07 and 1.07 ± 0.05.

Regarding “[Fe2Cp2(CO)(μ-CO){μ-η^1:η^3-Cγ(3-C6H4OC(=O)C6H4OC(=O)Me)CβHCαNMe(Xyl)}]CF3SO3 [[4]CF3SO3]”, in the series with A2780 cells, the “ROS production compared to H2O2 positive control” value is recorded as “ROS production higher than that recorded for H2O2” and the “intracellular ROS levels” value is on record as “Significant intracellular ROS levels”. For the same substance, in series [1], the “interaction with natural DNA (EB displacement)” value is reported as “interact weakly with natural DNA”. Further, the “Log Pow” value in series [2] stood at 1.06 ± 0.04.
